Test results published in ChEMBL document CHEMBL1145498, “A systematic interaction map of validated kinase inhibitors with Ser/Thr kinases” (Proc Natl Acad Sci U S A, 2007).

What was measured:
[1] = target: Calcium/calmodulin-dependent protein kinase type 1D (Homo sapiens) (UniProt Q8IU85)
[2] = target: Calcium/calmodulin-dependent protein kinase type 1G (Homo sapiens) (UniProt Q96NX5)
[3] = target: Calcium/calmodulin-dependent protein kinase type II subunit alpha (Homo sapiens) (UniProt Q9UQM7)
[4] = target: Calcium/calmodulin-dependent protein kinase type II subunit delta (Homo sapiens) (UniProt Q13557)
[5] = target: Calcium/calmodulin-dependent protein kinase kinase 2 (Homo sapiens, UniProt Q96RR4)
Calcium/calmodulin-dependent protein kinase kinase 2, sequence (Q96RR4 2-588 limits assumed): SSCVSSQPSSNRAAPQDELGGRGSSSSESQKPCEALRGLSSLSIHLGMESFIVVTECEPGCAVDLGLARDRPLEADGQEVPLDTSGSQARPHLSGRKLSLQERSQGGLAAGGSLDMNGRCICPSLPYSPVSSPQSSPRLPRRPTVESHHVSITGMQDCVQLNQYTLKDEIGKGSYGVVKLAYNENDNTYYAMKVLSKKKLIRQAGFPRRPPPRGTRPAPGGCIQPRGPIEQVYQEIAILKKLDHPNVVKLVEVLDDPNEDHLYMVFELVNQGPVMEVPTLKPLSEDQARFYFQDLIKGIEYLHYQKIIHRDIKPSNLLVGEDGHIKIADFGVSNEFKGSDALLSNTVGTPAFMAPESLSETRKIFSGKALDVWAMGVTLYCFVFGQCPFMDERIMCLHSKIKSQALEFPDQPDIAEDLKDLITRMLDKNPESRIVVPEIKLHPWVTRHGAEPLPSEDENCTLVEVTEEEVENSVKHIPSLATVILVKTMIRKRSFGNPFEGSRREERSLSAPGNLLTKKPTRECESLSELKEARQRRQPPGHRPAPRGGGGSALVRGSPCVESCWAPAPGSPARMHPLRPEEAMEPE

[6] = target: Cyclin-dependent kinase 6 (Homo sapiens) (UniProt Q00534)
Cyclin-dependent kinase 6 (Homo sapiens), sequence (Q00534 whole entry): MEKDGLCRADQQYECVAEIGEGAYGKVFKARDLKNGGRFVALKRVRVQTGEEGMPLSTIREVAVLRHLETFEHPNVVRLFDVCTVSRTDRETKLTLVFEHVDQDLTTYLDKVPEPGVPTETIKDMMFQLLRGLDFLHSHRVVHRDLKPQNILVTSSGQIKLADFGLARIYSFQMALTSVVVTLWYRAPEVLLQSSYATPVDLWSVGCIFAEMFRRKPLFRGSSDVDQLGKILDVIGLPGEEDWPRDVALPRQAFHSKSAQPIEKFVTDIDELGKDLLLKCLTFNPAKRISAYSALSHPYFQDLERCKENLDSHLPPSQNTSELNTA

[7] = target: Serine/threonine-protein kinase Chk2 (Homo sapiens, UniProt O96017)
Serine/threonine-protein kinase Chk2, sequence (O96017 whole entry): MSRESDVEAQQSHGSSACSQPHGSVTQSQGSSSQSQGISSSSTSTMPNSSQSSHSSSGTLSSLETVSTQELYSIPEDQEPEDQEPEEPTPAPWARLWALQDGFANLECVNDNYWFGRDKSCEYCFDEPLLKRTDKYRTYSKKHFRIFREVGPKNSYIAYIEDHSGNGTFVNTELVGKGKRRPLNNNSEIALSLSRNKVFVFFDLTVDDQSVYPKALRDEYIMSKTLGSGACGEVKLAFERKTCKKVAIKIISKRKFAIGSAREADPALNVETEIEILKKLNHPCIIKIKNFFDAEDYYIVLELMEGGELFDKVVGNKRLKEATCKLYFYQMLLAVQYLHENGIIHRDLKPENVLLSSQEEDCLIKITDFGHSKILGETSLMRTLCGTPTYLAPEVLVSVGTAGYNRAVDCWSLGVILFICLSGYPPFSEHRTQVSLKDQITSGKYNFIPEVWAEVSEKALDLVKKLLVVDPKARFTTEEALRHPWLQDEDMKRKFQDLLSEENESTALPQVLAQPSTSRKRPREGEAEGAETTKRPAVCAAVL

[8] = target: Dual specificity protein kinase CLK1 (Homo sapiens) (UniProt P49759)
Dual specificity protein kinase CLK1 (Homo sapiens), sequence (P49759 whole entry, looked up): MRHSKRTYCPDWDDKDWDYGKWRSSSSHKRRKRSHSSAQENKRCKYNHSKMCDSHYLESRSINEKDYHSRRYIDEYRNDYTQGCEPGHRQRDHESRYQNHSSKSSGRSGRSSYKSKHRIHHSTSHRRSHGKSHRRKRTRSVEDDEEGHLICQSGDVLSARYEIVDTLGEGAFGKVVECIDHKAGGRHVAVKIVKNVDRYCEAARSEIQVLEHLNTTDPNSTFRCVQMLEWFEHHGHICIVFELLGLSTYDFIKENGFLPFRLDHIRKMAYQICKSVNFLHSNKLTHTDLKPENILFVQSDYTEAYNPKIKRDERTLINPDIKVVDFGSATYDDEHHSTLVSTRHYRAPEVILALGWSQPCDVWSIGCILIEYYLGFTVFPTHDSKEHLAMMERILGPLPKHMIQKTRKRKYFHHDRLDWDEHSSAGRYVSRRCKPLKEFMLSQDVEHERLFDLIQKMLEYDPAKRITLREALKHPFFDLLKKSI

[9] = target: Dual specificity protein kinase CLK2 (Homo sapiens) (UniProt P49760)
[10] = target: Dual specificity protein kinase CLK3 (Homo sapiens) (UniProt P49761)
Dual specificity protein kinase CLK3 (Homo sapiens), sequence (P49761 whole entry, looked up, canonical isoform): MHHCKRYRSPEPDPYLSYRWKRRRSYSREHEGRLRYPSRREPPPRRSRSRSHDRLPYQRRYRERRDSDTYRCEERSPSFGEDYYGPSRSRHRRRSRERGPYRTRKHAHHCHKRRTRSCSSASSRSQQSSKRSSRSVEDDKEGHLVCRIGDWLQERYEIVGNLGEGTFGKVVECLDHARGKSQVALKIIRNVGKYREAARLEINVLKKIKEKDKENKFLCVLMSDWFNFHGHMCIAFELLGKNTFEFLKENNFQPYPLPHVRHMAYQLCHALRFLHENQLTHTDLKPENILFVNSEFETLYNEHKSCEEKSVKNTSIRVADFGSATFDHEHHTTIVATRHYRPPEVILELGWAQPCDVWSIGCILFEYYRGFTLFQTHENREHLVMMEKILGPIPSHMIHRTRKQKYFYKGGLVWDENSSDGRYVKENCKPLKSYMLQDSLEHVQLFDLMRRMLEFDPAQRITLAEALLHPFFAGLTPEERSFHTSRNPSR

[11] = target: Casein kinase I isoform gamma-1 (Homo sapiens) (UniProt Q9HCP0)
Casein kinase I isoform gamma-1 (Homo sapiens), sequence (Q9HCP0 whole entry, looked up, canonical isoform): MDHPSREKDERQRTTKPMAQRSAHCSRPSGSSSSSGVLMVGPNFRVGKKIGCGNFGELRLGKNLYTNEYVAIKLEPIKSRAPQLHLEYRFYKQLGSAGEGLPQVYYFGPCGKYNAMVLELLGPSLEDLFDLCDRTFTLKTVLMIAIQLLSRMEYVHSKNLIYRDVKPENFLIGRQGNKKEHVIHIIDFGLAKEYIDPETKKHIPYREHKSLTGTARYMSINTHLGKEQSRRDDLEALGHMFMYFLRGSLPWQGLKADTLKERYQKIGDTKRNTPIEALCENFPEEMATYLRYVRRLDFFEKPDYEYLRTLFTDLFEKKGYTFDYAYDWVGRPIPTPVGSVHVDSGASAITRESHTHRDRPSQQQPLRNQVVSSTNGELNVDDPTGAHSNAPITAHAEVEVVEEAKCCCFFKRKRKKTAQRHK

[12] = target: Casein kinase I isoform gamma-2 (Homo sapiens) (UniProt P78368)
Casein kinase I isoform gamma-2 (Homo sapiens), sequence (P78368 whole entry, looked up, canonical isoform): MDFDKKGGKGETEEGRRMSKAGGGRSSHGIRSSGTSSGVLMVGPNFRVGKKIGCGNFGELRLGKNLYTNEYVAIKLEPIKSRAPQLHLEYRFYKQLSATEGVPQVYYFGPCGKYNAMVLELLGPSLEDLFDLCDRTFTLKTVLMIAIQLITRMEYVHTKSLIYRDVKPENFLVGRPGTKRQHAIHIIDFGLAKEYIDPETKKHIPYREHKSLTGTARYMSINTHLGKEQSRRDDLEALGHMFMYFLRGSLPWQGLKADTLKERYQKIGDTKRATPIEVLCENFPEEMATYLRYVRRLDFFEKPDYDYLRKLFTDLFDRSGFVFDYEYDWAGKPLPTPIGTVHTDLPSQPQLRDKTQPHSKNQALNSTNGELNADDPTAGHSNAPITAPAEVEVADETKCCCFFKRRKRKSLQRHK

[13] = target: T1, Myotonin-protein kinase (Homo sapiens) (UniProt Q09013)
T1 sequence (whole entry): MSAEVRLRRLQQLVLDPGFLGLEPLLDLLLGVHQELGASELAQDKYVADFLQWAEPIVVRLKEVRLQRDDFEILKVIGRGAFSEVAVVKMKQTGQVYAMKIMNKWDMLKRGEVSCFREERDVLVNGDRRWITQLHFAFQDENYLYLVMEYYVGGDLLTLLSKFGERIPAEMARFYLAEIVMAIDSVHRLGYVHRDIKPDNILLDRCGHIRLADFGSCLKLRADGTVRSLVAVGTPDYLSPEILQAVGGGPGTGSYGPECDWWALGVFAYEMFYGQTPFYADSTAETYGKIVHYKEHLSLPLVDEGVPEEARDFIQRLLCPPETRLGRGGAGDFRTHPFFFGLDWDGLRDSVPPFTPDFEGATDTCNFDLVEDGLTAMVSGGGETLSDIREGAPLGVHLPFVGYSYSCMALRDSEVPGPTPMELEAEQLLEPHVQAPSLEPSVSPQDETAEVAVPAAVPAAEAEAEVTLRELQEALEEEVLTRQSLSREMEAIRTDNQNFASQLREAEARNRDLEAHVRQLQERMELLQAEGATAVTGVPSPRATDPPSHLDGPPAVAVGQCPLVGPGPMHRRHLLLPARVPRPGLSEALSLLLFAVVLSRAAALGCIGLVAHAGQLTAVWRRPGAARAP

[14] = target: Glycogen synthase kinase-3 beta (Homo sapiens, UniProt P49841)
[15] = target: Tyrosine-protein kinase JAK1 (Homo sapiens) (UniProt P23458)
Tyrosine-protein kinase JAK1 (Homo sapiens), sequence (P23458 whole entry): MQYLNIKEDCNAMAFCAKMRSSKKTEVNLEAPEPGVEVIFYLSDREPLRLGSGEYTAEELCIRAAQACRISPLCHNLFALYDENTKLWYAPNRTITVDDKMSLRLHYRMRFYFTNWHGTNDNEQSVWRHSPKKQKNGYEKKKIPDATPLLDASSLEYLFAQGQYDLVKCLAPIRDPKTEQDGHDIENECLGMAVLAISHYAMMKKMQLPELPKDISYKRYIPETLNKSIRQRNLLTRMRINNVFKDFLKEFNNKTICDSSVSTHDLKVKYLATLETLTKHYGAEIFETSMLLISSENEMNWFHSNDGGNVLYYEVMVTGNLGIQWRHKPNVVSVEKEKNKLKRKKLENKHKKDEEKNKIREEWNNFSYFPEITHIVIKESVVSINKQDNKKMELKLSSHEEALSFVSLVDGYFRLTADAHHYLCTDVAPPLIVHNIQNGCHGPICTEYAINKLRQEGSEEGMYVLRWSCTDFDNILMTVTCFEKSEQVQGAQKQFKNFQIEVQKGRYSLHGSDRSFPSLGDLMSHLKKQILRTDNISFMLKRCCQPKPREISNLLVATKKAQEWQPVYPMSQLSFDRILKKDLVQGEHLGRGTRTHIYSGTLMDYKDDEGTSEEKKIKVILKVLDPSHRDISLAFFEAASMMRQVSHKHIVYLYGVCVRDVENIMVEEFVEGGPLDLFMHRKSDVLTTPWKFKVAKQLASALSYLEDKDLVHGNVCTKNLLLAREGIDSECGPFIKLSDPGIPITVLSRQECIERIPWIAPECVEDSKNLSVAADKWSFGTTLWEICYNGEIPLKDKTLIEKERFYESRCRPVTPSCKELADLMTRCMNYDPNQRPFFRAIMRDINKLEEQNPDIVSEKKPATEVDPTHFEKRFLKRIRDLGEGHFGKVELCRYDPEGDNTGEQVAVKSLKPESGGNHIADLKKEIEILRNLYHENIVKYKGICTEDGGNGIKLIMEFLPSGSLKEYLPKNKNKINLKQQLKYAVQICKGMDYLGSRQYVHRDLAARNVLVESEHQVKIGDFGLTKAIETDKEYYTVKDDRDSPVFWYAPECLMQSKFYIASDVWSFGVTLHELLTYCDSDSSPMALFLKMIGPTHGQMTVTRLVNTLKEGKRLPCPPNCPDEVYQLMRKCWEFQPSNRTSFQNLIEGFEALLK

[16] = target: Dual specificity mitogen-activated protein kinase kinase 2 (Homo sapiens, UniProt P36507)
[17] = target: T2, Serine/threonine-protein kinase Nek2 (Homo sapiens) (UniProt P51955)
T2 sequence (whole entry): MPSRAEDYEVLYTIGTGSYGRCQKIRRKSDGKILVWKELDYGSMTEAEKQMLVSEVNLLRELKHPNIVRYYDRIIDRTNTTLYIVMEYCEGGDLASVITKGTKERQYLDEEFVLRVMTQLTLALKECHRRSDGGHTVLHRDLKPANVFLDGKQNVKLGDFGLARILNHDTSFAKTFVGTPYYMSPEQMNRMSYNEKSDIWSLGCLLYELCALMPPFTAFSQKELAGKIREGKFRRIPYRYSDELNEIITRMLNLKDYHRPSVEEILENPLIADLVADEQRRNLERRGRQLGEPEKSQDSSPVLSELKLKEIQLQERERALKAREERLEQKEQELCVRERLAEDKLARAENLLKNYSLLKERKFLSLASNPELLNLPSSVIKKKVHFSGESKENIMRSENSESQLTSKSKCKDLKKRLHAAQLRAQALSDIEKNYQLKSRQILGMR

[18] = target: Cyclin-dependent kinase 16 (Homo sapiens) (UniProt Q00536)
[19] = target: Serine/threonine-protein kinase pim-1 (Homo sapiens) (UniProt P11309)
[20] = target: Serine/threonine-protein kinase pim-2 (Homo sapiens, UniProt Q9P1W9)
[21] = target: Serine/threonine-protein kinase PLK1 (Homo sapiens) (UniProt P53350)
[22] = target: Ribosomal protein S6 kinase alpha-3 (Homo sapiens) (UniProt P51812)
[23] = target: STE20-like serine/threonine-protein kinase (Homo sapiens) (UniProt Q9H2G2)
[24] = target: Serine/threonine-protein kinase 38 (Homo sapiens) (UniProt Q15208)
[25] = target: Serine/threonine-protein kinase 26 (Homo sapiens) (UniProt Q9P289)
[26] = target: T3, Lymphokine-activated killer T-cell-originated protein kinase (Homo sapiens) (UniProt Q96KB5)
T3 sequence (whole entry): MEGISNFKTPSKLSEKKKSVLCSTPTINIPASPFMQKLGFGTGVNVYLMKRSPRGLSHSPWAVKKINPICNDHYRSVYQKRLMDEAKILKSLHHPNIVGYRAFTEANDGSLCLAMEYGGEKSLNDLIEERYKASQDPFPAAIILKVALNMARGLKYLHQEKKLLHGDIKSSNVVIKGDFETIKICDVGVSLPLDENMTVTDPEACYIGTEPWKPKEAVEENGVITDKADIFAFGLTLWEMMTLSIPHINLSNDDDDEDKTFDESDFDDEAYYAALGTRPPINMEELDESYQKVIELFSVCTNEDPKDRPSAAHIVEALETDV

Calcium/calmodulin-dependent protein kinase type 1D (Homo sapiens), sequence (Q8IU85 whole entry, looked up): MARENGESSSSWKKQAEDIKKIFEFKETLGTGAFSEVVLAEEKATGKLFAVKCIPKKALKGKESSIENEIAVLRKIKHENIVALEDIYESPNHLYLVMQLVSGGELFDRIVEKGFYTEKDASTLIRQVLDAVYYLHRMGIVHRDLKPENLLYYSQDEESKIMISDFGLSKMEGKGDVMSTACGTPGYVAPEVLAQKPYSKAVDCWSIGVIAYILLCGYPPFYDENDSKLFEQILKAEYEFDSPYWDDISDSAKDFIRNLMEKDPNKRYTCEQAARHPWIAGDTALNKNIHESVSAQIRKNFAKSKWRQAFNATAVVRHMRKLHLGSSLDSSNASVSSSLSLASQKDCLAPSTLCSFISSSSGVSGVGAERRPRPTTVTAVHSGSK

SMILES	ΔTm [1] [°C]	ΔTm [2] [°C]	ΔTm [3] [°C]	ΔTm [4] [°C]	ΔTm [5] [°C]	ΔTm [6] [°C]	ΔTm [7] [°C]	ΔTm [8] [°C]	ΔTm [9] [°C]	ΔTm [10] [°C]	ΔTm [11] [°C]	ΔTm [12] [°C]	ΔTm [13] [°C]	ΔTm [14] [°C]	ΔTm [15] [°C]	ΔTm [16] [°C]	ΔTm [17] [°C]	ΔTm [18] [°C]	ΔTm [19] [°C]	ΔTm [20] [°C]	also measured
Cc1ccc(NC(=O)c2cccc(N(C)C)c2)cc1NC(=O)c1ccc(O)cc1	0.3	0.4	0.1	0	0.4	-0.4	0.9	-0.2	0.2	0	-0.1	0.2	-0.8	0	0.1	0.4	0.3	0.3	-0.3	0	ΔTm [21]: 0.9 °C; ΔTm [22]: -0.1 °C; ΔTm [23]: 0.9 °C; ΔTm [24]: 0 °C; ΔTm [25]: 1 °C; ΔTm [26]: 0.4 °C
Cl.Cn1cc(C2=C(c3ccc4cc5n(c4c3)CCC(CN)C5)C(=O)NC2=O)c2ccccc21 (stereo not drawn)	0.3	0.3	1.4	-0.5	-1.3	1	1	1	1	0	0.5	0.4	6	6.7	-2.8	0.1	1.1	2.9	6.3	3.1	ΔTm [21]: 0.1 °C; ΔTm [22]: 0.1 °C; ΔTm [23]: 4.5 °C; ΔTm [24]: 0.4 °C; ΔTm [25]: 0.3 °C; ΔTm [26]: -0.6 °C
O=C1NC(=O)c2c1c1c3ccccc3n3c1c1c2c2ccccc2n1C1CCC3O1	1.6	-0.2	-0.4	-0.2	-0.3	-0.3	3.9	3.3	1.7	0.5	0.2	0.7	6.8	-0.2	-0.2	-0.2	0.3	0.3	6.2	5.5	ΔTm [21]: 4 °C; ΔTm [22]: -0.4 °C; ΔTm [23]: 0.1 °C; ΔTm [24]: 0 °C; ΔTm [25]: -0.6 °C; ΔTm [26]: -0.3 °C
O=C1c2ccccc2-[n+]2ccc3c([nH]c4ccccc43)c21 [FASCAPLYSIN CHLORIDE]	-4.3	-3.5	-0.5	-2.9	-2.1	0.2	4.9	-1.9	-0.4	-0.9	-0.6	-0.3	-0.9	0.1	-1.5	-0.8	-2	-0.6	-0.8	-2.4	ΔTm [21]: 0.8 °C; ΔTm [22]: 0.7 °C; ΔTm [23]: -0.9 °C; ΔTm [24]: -0.5 °C; ΔTm [25]: -2.5 °C; ΔTm [26]: 0.6 °C
COc1cc(OC)c(/C=C2\C(=O)Nc3ccccc32)c(OC)c1	-0.2	0	-0.1	-0.3	0.4	0.3	-0.7	0.1	0.3	0	0.5	0.7	0.2	0.4	0.5	-0.4	0.4	-0.7	-1	0.5	ΔTm [21]: -0.7 °C; ΔTm [22]: 0.1 °C; ΔTm [23]: 0.1 °C; ΔTm [24]: 0.2 °C; ΔTm [25]: 0 °C; ΔTm [26]: 0.5 °C
O=C1NC(=O)C(c2cn(CCCn3ccnc3)c3ccccc23)=C1Nc1ccccc1	0.2	1	1.7	0.1	3.8	0.9	1.5	5.8	4.3	3	0.6	1	4.5	8.4	1.1	0.4	1.2	0.6	3.1	1.5	ΔTm [21]: 1.2 °C; ΔTm [22]: 6.3 °C; ΔTm [23]: 4.8 °C; ΔTm [24]: 0.7 °C; ΔTm [25]: 3.1 °C; ΔTm [26]: 0.8 °C
CCOc1ccc(/C=C2/SC(=O)N(CCN)C2=O)cc1 [HIAZOLIDINEDIONE1]	-0.2	0.2	-0.2	0	-0.4	0.2	0.7	0.9	0.2	0.1	0.3	0.6	1.4	-1.3	-0.1	0.4	0.8	0.2	-0.4	-0.1	ΔTm [21]: 0.6 °C; ΔTm [22]: 0 °C; ΔTm [23]: -0.4 °C; ΔTm [24]: 0.5 °C; ΔTm [25]: -0.1 °C; ΔTm [26]: 0.2 °C
O=C1C(Cl)=C(N2C(=O)CCC2=O)C(=O)c2ccccc21	-9.6	-1.9	3.4	-1.5	-2.5	1.6	5.6	-1.1	-1.3	-1.3	0.7	0.1	-0.9	-3.5	-2.9	-2.4	2.5	0.4	0.9	-4.1	ΔTm [21]: -0.2 °C; ΔTm [22]: -2.4 °C; ΔTm [23]: -0.6 °C; ΔTm [24]: -1.4 °C; ΔTm [25]: -2.1 °C; ΔTm [26]: -4.4 °C
